Test results: patent publication US20260132132A1, “3A,4,5,6-TETRAHYDRO-1 H-PYRAZOLO[3,4-C]PYRIDIN-7(7AH)-ONE DERIVATIVES AS FACTOR XIIA INHIBITORS” (KALVISTA PHARMACEUTICALS LIMITED, priority 2022, published 2026)

Assays:
[1] = molecular target: T1, Human Factor XIIa (hFXIIa) (Homo sapiens, UniProt P00748); test: Determination of Human Factor XIIa (hFXIIa) inhibition, fluorogenic substrate IC50 assay; format: biochemical; details: fluorogenic substrate H-DPro-Phe-Arg-AFC at Km, 25° C., read-out: Human FXIIa IC50
T1 construct: purchased Enzyme Research Laboratories
T1 sequence (P00748 373-615 limits assumed): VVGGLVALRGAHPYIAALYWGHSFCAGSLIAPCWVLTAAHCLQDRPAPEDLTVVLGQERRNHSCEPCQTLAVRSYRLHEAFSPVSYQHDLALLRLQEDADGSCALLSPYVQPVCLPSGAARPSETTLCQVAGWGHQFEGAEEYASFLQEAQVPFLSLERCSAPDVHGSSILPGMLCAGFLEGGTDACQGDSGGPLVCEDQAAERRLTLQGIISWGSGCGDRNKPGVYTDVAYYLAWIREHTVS
T1 sequence (P00748 20-372 partner limits assumed): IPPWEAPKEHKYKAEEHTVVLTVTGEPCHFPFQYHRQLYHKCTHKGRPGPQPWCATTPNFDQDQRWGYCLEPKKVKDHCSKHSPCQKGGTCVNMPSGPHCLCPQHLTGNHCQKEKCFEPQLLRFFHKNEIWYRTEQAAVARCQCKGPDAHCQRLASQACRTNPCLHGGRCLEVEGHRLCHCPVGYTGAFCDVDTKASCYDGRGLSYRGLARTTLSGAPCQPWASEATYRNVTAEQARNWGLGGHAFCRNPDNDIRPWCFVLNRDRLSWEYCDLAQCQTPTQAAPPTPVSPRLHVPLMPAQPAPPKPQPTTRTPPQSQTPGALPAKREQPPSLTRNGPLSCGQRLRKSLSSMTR
Method: Determination of Human Factor XIIa (hFXIIa) inhibition
The Km for the cleavage of the substrate by hFXIIa was determined by standard transformation of the Michaelis-Menten equation, with subsequent inhibition assays performed at substrate Km concentration.

[2] = molecular target: FXa (Homo sapiens, UniProt P00742); test: Related protease inhibition: FXa, fluorogenic substrate; format: biochemical; details: fluorogenic substrate at Km, 25° C.; H1-H3 = % activity at 40 μM
Method: Human serine protease enzyme Plasma Kallikrein, KLK1, FXa, Plasmin, Thrombin and Trypsin were assayed for enzymatic activity using an appropriate fluorogenic substrate at Km concentration, FXIa at fixed substrate concentration of 100 μM and various concentrations of the test compound.

Chain of FXa (P00742 235-488 limits assumed): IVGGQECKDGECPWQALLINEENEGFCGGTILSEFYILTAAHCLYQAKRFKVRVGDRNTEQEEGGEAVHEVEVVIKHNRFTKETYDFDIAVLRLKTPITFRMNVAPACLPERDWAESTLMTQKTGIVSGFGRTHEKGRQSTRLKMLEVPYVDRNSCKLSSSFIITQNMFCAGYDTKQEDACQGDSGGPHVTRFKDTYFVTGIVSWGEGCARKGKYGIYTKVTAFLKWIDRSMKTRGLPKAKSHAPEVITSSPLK
Chain of FXa (P00742 41-179 partner limits assumed): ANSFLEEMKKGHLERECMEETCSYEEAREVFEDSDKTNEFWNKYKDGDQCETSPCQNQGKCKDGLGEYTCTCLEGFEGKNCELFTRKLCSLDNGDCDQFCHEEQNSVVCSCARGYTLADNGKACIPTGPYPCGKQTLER

Structure (SMILES) | IC50 [1] [nM] | IC50 [2] [µM]
CN1CCc2ccc(N3CCc4c(C(=O)NCC5CCCCC5)nn(-c5cccc(Cl)c5)c4C3=O)cc2C1 [Example 1023, 1-(3-chlorophenyl)-N-(cyclohexylmethyl)-6-(2-methyl-1,2,3,4-tetrahydroisoquinolin-7-yl)-7-oxo-4,5,6,7-tetrahydro-1H-pyrazolo[3,4-c]pyridine-3-carboxamide] | 100 to 300 | 3 to 10
CN1CCc2ccc(N3CCc4c(C(=O)NCC5CCCO5)nn(-c5cccc(Cl)c5)c4C3=O)cc2C1 (stereo not drawn) [Example 1025, 1-(3-chlorophenyl)-6-(2-methyl-1,2,3,4-tetrahydroisoquinolin-7-yl)-7-oxo-N-((tetrahydrofuran-2-yl)methyl)-4,5,6,7-tetrahydro-1H-pyrazolo[3,4-c]pyridine-3-carboxamide] | 300 to 1000 | 3 to 10
CN1CCc2ccc(N3CCc4c(C(=O)NCC5CCOC5)nn(-c5cccc(Cl)c5)c4C3=O)cc2C1 (stereo not drawn) [Example 1026, 1-(3-chlorophenyl)-6-(2-methyl-1,2,3,4-tetrahydroisoquinolin-7-yl)-7-oxo-N-((tetrahydrofuran-3-yl)methyl)-4,5,6,7-tetrahydro-1H-pyrazolo[3,4-c]pyridine-3-carboxamide] | 300 to 1000 | 10 to 40
O=C(NCc1ccccc1)c1nn(-c2cccc(Cl)c2)c2c1CCN(c1ccc3c(c1)CN(C1CC1)CC3)C2=O [Example 1029, N-benzyl-1-(3-chlorophenyl)-6-(2-cyclopropyl-1,2,3,4-tetrahydroisoquinolin-7-yl)-7-oxo-4,5,6,7-tetrahydro-1H-pyrazolo[3,4-c]pyridine-3-carboxamide] | 300 to 1000 | > 100
CN1CCCc2ccc(N3CCc4c(C(=O)NCc5ccccc5)nn(-c5cccc(Cl)c5)c4C3=O)cc2C1 [Example 1030, N-benzyl-1-(3-chlorophenyl)-6-(2-methyl-2,3,4,5-tetrahydro-1H-benzo[c]azepin-8-yl)-7-oxo-4,5,6,7-tetrahydro-1H-pyrazolo[3,4-c]pyridine-3-carboxamide] | 100 to 300 | 3 to 10
CCN1CCc2ccc(N3CCc4c(C(=O)NCC5CC5)nn(-c5cccc(Cl)c5)c4C3=O)cc2C1 [Example 1031, 1-(3-chlorophenyl)-N-(cyclopropylmethyl)-6-(2-ethyl-1,2,3,4-tetrahydroisoquinolin-7-yl)-7-oxo-4,5,6,7-tetrahydro-1H-pyrazolo[3,4-c]pyridine-3-carboxamide] | 100 to 300 | 10 to 40
O=C(NCC1CC1)c1nn(-c2cccc(Cl)c2)c2c1CCN(c1ccc3c(c1)CN(C1COC1)CC3)C2=O [Example 1032, 1-(3-chlorophenyl)-N-(cyclopropylmethyl)-6-(2-(oxetan-3-yl)-1,2,3,4-tetrahydroisoquinolin-7-yl)-7-oxo-4,5,6,7-tetrahydro-1H-pyrazolo[3,4-c]pyridine-3-carboxamide] | 300 to 1000 | > 40
O=C(NCC1CC1)c1nn(-c2cccc(Cl)c2)c2c1CCN(c1ccc3c(c1)CN(CC1CC1)CC3)C2=O [Example 1036, 1-(3-chlorophenyl)-N-(cyclopropylmethyl)-6-(2-(cyclopropylmethyl)-1,2,3,4-tetrahydroisoquinolin-7-yl)-7-oxo-4,5,6,7-tetrahydro-1H-pyrazolo[3,4-c]pyridine-3-carboxamide] | 300 to 1000 | > 40
CN1CCc2ccc(N3CCc4c(C(=O)NC5CCOCC5)nn(-c5cccc(Cl)c5)c4C3=O)cc2C1 [Example 1043, 1-(3-chlorophenyl)-6-(2-methyl-1,2,3,4-tetrahydroisoquinolin-7-yl)-7-oxo-N-(tetrahydro-2H-pyran-4-yl)-4,5,6,7-tetrahydro-1H-pyrazolo[3,4-c]pyridine-3-carboxamide] | 300 to 1000 | 3 to 10
CCN1CCc2ccc(N3CCc4c(C(=O)N[C@H](CO)c5ccccc5)nn(-c5cccc(Cl)c5)c4C3=O)cc2C1 [Example 1051, (S)-1-(3-chlorophenyl)-6-(2-ethyl-1,2,3,4-tetrahydroisoquinolin-7-yl)-N-(2-hydroxy-1-phenylethyl)-7-oxo-4,5,6,7-tetrahydro-1H-pyrazolo[3,4-c]pyridine-3-carboxamide] | 10 to 100 | 3 to 10
O=C(NCC1CC1)c1nn(-c2cccc(Cl)c2)c2c1CCN(c1ccc3c(c1)CNCC3)C2=O [Example 1074, 1-(3-chlorophenyl)-N-(cyclopropylmethyl)-7-oxo-6-(1,2,3,4-tetrahydroisoquinolin-7-yl)-4,5,6,7-tetrahydro-1H-pyrazolo[3,4-c]pyridine-3-carboxamide] | 1000 to 3000 | 10 to 40
O=C(NC1CCOCC1)c1nn(-c2cccc(Cl)c2)c2c1CCN(c1ccc3c(c1)CN(CCO)CC3)C2=O [Example 1076, 1-(3-chlorophenyl)-6-(2-(2-hydroxyethyl)-1,2,3,4-tetrahydroisoquinolin-7-yl)-7-oxo-N-(tetrahydro-2H-pyran-4-yl)-4,5,6,7-tetrahydro-1H-pyrazolo[3,4-c]pyridine-3-carboxamide] | 100 to 300 | 10 to 40
Cc1cc(CNC(=O)c2nn(-c3cccc(Cl)c3)c3c2CCN(c2ccc4c(c2)CN(CCO)CC4)C3=O)[nH]n1 [Example 1077, 1-(3-chlorophenyl)-6-(2-(2-hydroxyethyl)-1,2,3,4-tetrahydroisoquinolin-7-yl)-N-((3-methyl-1H-pyrazol-5-yl)methyl)-7-oxo-4,5,6,7-tetrahydro-1H-pyrazolo[3,4-c]pyridine-3-carboxamide] | 10 to 100 | 3 to 10
O=C(NCc1cccnc1)c1nn(-c2cccc(Cl)c2)c2c1CCN(c1ccc3c(c1)CN(CCO)CC3)C2=O [Example 1078, 1-(3-chlorophenyl)-6-(2-(2-hydroxyethyl)-1,2,3,4-tetrahydroisoquinolin-7-yl)-7-oxo-N-(pyridin-3-ylmethyl)-4,5,6,7-tetrahydro-1H-pyrazolo[3,4-c]pyridine-3-carboxamide] | 10 to 100 | 3 to 10
CCN1CCc2cc(F)c(N3CCc4c(C(=O)NCC5CC5)nn(-c5cccc(Cl)c5)c4C3=O)cc2C1 [Example 1079, 1-(3-chlorophenyl)-N-(cyclopropylmethyl)-6-(2-ethyl-6-fluoro-1,2,3,4-tetrahydroisoquinolin-7-yl)-7-oxo-4,5,6,7-tetrahydro-1H-pyrazolo[3,4-c]pyridine-3-carboxamide] | 10 to 100 | 10 to 40
CCN1CCc2ccc(N3CCc4c(C(=O)NC5CCOCC5)nn(-c5cccc(Cl)c5)c4C3=O)cc2C1 [Example 1085, 1-(3-chlorophenyl)-6-(2-ethyl-1,2,3,4-tetrahydroisoquinolin-7-yl)-7-oxo-N-(tetrahydro-2H-pyran-4-yl)-4,5,6,7-tetrahydro-1H-pyrazolo[3,4-c]pyridine-3-carboxamide] | 100 to 300 | > 40
O=C(NCc1ccn[nH]1)c1nn(-c2cccc(Cl)c2)c2c1CCN(c1ccc3c(c1)CN(CCO)CC3)C2=O [Example 1089, N-((1H-pyrazol-5-yl)methyl)-1-(3-chlorophenyl)-6-(2-(2-hydroxyethyl)-1,2,3,4-tetrahydroisoquinolin-7-yl)-7-oxo-4,5,6,7-tetrahydro-1H-pyrazolo[3,4-c]pyridine-3-carboxamide] | 10 to 100 | 10 to 40
CCN1CCc2ccc(N3CCc4c(C(=O)NC5COCC5(C)C)nn(-c5cccc(Cl)c5)c4C3=O)cc2C1 (stereo not drawn) [Example 1092, 1-(3-chlorophenyl)-N-(4,4-dimethyltetrahydrofuran-3-yl)-6-(2-ethyl-1,2,3,4-tetrahydroisoquinolin-7-yl)-7-oxo-4,5,6,7-tetrahydro-1H-pyrazolo[3,4-c]pyridine-3-carboxamide] | 100 to 300 | > 40
CCN1Cc2cc(N3CCc4c(C(=O)NCC5CC5)nn(-c5cccc(Cl)c5)c4C3=O)ccc2C2(CC2)C1 [Example 1099, 1-(3-chlorophenyl)-N-(cyclopropylmethyl)-6-(2′-ethyl-2′,3′-dihydro-1′H-spiro[cyclopropane-1,4′-isoquinolin]-7′-yl)-7-oxo-4,5,6,7-tetrahydro-1H-pyrazolo[3,4-c]pyridine-3-carboxamide] | 10 to 100 | 3 to 10
O=C(NCc1ccco1)c1nn(-c2cccc(Cl)c2)c2c1CCN(c1ccc3c(c1)CN(CCO)CC3)C2=O [Example 1109, 1-(3-chlorophenyl)-N-(furan-2-ylmethyl)-6-(2-(2-hydroxyethyl)-1,2,3,4-tetrahydroisoquinolin-7-yl)-7-oxo-4,5,6,7-tetrahydro-1H-pyrazolo[3,4-c]pyridine-3-carboxamide] | 10 to 100 | > 40
Cc1ccncc1CNC(=O)c1nn(-c2cccc(Cl)c2)c2c1CCN(c1ccc3c(c1)CN(CCO)CC3)C2=O [Example 1110, 1-(3-chlorophenyl)-6-(2-(2-hydroxyethyl)-1,2,3,4-tetrahydroisoquinolin-7-yl)-N-((4-methylpyridin-3-yl)methyl)-7-oxo-4,5,6,7-tetrahydro-1H-pyrazolo[3,4-c]pyridine-3-carboxamide] | 10 to 100 | 10 to 40
